From the NIST ThermoML archive (doi:10.1021/je034162x)
± gives the expanded uncertainty stated by the source.

Conditions: 101.33 kPa, Liquid, Hot wire method

C=CCCCCC [1-heptene]
thermal conductivity (262.46 K): 0.1325 ± 0.001 W/m/K | thermal conductivity (262.75 K): 0.1324 ± 0.001 W/m/K | thermal conductivity (262.97 K): 0.1324 ± 0.001 W/m/K | thermal diffusivity (263.83 K): 9.06e-08 ± 1.7e-09 m2/s | thermal diffusivity (264.74 K): 9.11e-08 ± 1.7e-09 m2/s | thermal diffusivity (265.37 K): 9.1e-08 ± 1.7e-09 m2/s | thermal conductivity (280.48 K): 0.1268 ± 0.001 W/m/K | thermal conductivity (280.8 K): 0.1267 ± 0.001 W/m/K | thermal conductivity (281.03 K): 0.1264 ± 0.001 W/m/K | thermal diffusivity (281.93 K): 8.66e-08 ± 1.7e-09 m2/s | thermal diffusivity (282.87 K): 8.67e-08 ± 1.7e-09 m2/s | thermal diffusivity (283.53 K): 8.66e-08 ± 1.7e-09 m2/s | thermal conductivity (297.36 K): 0.1213 ± 0.00097 W/m/K | thermal conductivity (297.71 K): 0.1213 ± 0.00097 W/m/K | thermal conductivity (297.95 K): 0.1212 ± 0.00097 W/m/K | thermal diffusivity (298.89 K): 8.27e-08 ± 1.6e-09 m2/s | thermal diffusivity (299.87 K): 8.27e-08 ± 1.6e-09 m2/s | thermal diffusivity (300.55 K): 8.25e-08 ± 1.6e-09 m2/s | thermal conductivity (320.47 K): 0.1144 ± 0.00092 W/m/K | thermal conductivity (320.83 K): 0.1143 ± 0.00092 W/m/K | thermal conductivity (321.08 K): 0.1142 ± 0.00092 W/m/K | thermal diffusivity (322.07 K): 7.76e-08 ± 1.5e-09 m2/s | thermal diffusivity (323.1 K): 7.76e-08 ± 1.5e-09 m2/s | thermal diffusivity (323.81 K): 7.73e-08 ± 1.5e-09 m2/s

CC(C)c1ccccc1 [isopropylbenzene]
thermal conductivity (261.13 K): 0.1263 ± 0.00085 W/m/K | thermal conductivity (261.33 K): 0.1262 ± 0.00085 W/m/K | thermal conductivity (261.48 K): 0.1262 ± 0.00085 W/m/K | thermal diffusivity (261.85 K): 8.45e-08 ± 1.6e-09 m2/s | thermal diffusivity (262.36 K): 8.45e-08 ± 1.6e-09 m2/s | thermal diffusivity (262.72 K): 8.44e-08 ± 1.6e-09 m2/s | thermal conductivity (275.03 K): 0.1238 ± 0.00083 W/m/K | thermal conductivity (275.24 K): 0.1237 ± 0.00083 W/m/K | thermal conductivity (275.4 K): 0.1237 ± 0.00083 W/m/K | thermal diffusivity (275.75 K): 8.18e-08 ± 1.5e-09 m2/s | thermal diffusivity (276.27 K): 8.21e-08 ± 1.5e-09 m2/s | thermal diffusivity (276.65 K): 8.22e-08 ± 1.5e-09 m2/s | thermal conductivity (294.11 K): 0.1202 ± 0.00082 W/m/K | thermal conductivity (294.32 K): 0.12 ± 0.00081 W/m/K | thermal conductivity (294.47 K): 0.1199 ± 0.00081 W/m/K | thermal diffusivity (294.85 K): 7.92e-08 ± 1.5e-09 m2/s | thermal diffusivity (295.35 K): 7.86e-08 ± 1.5e-09 m2/s | thermal diffusivity (295.72 K): 7.86e-08 ± 1.5e-09 m2/s | thermal conductivity (312.46 K): 0.1164 ± 0.00079 W/m/K | thermal conductivity (312.68 K): 0.1163 ± 0.00079 W/m/K | thermal conductivity (312.84 K): 0.1162 ± 0.00079 W/m/K | thermal diffusivity (313.18 K): 7.51e-08 ± 1.4e-09 m2/s | thermal diffusivity (313.72 K): 7.54e-08 ± 1.4e-09 m2/s | thermal diffusivity (314.09 K): 7.53e-08 ± 1.4e-09 m2/s | thermal conductivity (329.45 K): 0.1128 ± 0.00077 W/m/K | thermal conductivity (329.68 K): 0.1127 ± 0.00077 W/m/K | thermal conductivity (329.83 K): 0.1126 ± 0.00076 W/m/K | thermal diffusivity (330.17 K): 7.21e-08 ± 1.4e-09 m2/s | thermal diffusivity (330.7 K): 7.21e-08 ± 1.4e-09 m2/s | thermal diffusivity (331.08 K): 7.21e-08 ± 1.4e-09 m2/s

C1CCCCC1 [cyclohexane]
thermal conductivity (280.83 K): 0.1232 ± 0.00077 W/m/K | thermal conductivity (281 K): 0.1231 ± 0.00077 W/m/K | thermal conductivity (281.15 K): 0.123 ± 0.00077 W/m/K | thermal diffusivity (281.38 K): 8.75e-08 ± 1.6e-09 m2/s | thermal diffusivity (281.78 K): 8.73e-08 ± 1.6e-09 m2/s | thermal diffusivity (282.12 K): 8.75e-08 ± 1.6e-09 m2/s | thermal conductivity (295.53 K): 0.119 ± 0.00075 W/m/K | thermal conductivity (295.7 K): 0.1189 ± 0.00075 W/m/K | thermal conductivity (295.83 K): 0.1187 ± 0.00075 W/m/K | thermal diffusivity (296.05 K): 8.25e-08 ± 1.5e-09 m2/s | thermal diffusivity (296.45 K): 8.28e-08 ± 1.5e-09 m2/s | thermal diffusivity (296.76 K): 8.24e-08 ± 1.5e-09 m2/s | thermal conductivity (300.84 K): 0.1175 ± 0.00075 W/m/K | thermal conductivity (301 K): 0.1173 ± 0.00074 W/m/K | thermal conductivity (301.14 K): 0.1172 ± 0.00074 W/m/K | thermal diffusivity (301.35 K): 8.09e-08 ± 1.5e-09 m2/s | thermal diffusivity (301.73 K): 8.06e-08 ± 1.5e-09 m2/s | thermal diffusivity (302.06 K): 8.09e-08 ± 1.5e-09 m2/s | thermal conductivity (318.66 K): 0.1124 ± 0.00072 W/m/K | thermal conductivity (318.82 K): 0.1123 ± 0.00072 W/m/K | thermal conductivity (318.95 K): 0.1121 ± 0.00071 W/m/K | thermal diffusivity (319.16 K): 7.6e-08 ± 1.4e-09 m2/s | thermal diffusivity (319.54 K): 7.59e-08 ± 1.4e-09 m2/s | thermal diffusivity (319.84 K): 7.56e-08 ± 1.4e-09 m2/s
